Key:
Type in all cases: in vivo
[1] = system: CYPES (Cyperus serotinus); test: Pre-emergence herbicidal action against harmful plants; settings: dosage 320 g/ha
Excerpt: (§1) 1. Pre-Emergence Herbicidal Action Against Harmful Plants
(§2) Seeds of monocotyledonous and dicotyledonous weed plants and crop plants are laid out in wood-fiber pots in sandy loam and covered with soil. The compounds of the invention and, for comparative purposes, the compounds known from the prior art, formulated in the form of wettable powders (WP) or as emulsion concentrates (EC), are then applied to the surface of the covering soil as aqueous suspension or emulsion at a water application rate equating to 600 to 800 I/ha with addition of 0.2% of wetting agent. After the treatment, the pots are placed in a greenhouse and kept under good growth conditions for the trial plants. The damage to the test plants is scored visually after a test period of 3 weeks by comparison with untreated controls (herbicidal activity in percent (%): 100% activity=the plants have died, 0% activity=like control plants).

[2] = system: POLCO (Polygonum convolvulus); test: as above; settings: dosage 320 g/ha
Excerpt: as §1, §2

[3] = system: ALOMY (Alopecurus myosuroides); test: as above; settings: dosage 320 g/ha, scored visually after 3 weeks (Table C)
Excerpt: as §1, §2

[4] = system: AMARE (Amaranthus retroflexus); test: as above; settings: 504 h, dosage 320 g/ha
Excerpt: as §1, §2

VERPE (Veronica persica) = test: as above; settings: dosage 320 g/ha, scored visually after 3 weeks (Table E)
Excerpt: as §1, §2

[5] = system: MATIN (Matricaria inodora); test: as above; settings: dosage 320 g/ha, scored visually after 3 weeks (Table F)
Excerpt: as §1, §2

[6] = system: LOLMU (Lolium multiflorum); test: as above; settings: dosage 320 g/ha
Excerpt: as §1, §2

[7] = system: PHBPU (Pharbitis purpureum); test: as above; settings: dosage 320 g/ha, scored visually after 3 weeks (Table I)
Excerpt: as §1, §2

[8] = system: MATIN (Matricaria inodora); test: Post-emergence herbicidal action against harmful plants; settings: dosage 80 g/ha
Experimental: (§3) 2. Post-Emergence Herbicidal Action Against Harmful Plants
(§4) Seeds of monocotyledonous and dicotyledonous weed and crop plants are laid out in sandy loam in wood-fiber pots, covered with soil and cultivated in a greenhouse under good growth conditions. 2 to 3 weeks after sowing, the test plants are treated at the one-leaf stage. The compounds of the invention, formulated in the form of wettable powders (WP) or as emulsion concentrates (EC), are then sprayed onto the green parts of the plants in the form of an aqueous suspension or emulsion at a water application rate equating to 600 to 800 I/ha, with addition of 0.2% wetting agent. After the test plants have been left to stand in the greenhouse under optimal growth conditions for about 3 weeks, the action of the preparations is assessed visually in comparison to untreated controls (herbicidal action in percent (%): 100% activity=the plants have died, 0% activity=like control plants).

STEME (Stellaria media) = test: as above; settings: dosage 80 g/ha, assessed visually after about 3 weeks (Table K)
Experimental: as §3, §4

[9] = system: POLCO (Polygonum convolvulus); test: as above; settings: dosage 80 g/ha, assessed visually after about 3 weeks (Table L)
Experimental: as §3, §4

AVEFA (Avena fatua) = test: Pre-emergence herbicidal action against harmful plants; settings: dosage 320 g/ha, scored visually after 3 weeks vs untreated controls (100% = plants have died, 0% = like control plants)
Excerpt: as §1, §2

[10] = scored visually after 3 weeks (Table B)
[11] = scored visually after 3 weeks (Table C)
[12] = scored visually after 3 weeks (Table E)
[13] = scored visually after 3 weeks (Table F)
[14] = scored visually after 3 weeks (Table I)
[15] = assessed visually after about 3 weeks (Table K)
[16] = assessed visually after about 3 weeks (Table L)
[17] = scored visually after 3 weeks vs untreated controls (100% = plants have died, 0% = like control plants)

## CSc1c(I)ccc(C(=O)Nc2nnnn2C)c1C
[1]; [10]
  Activity against CYPES: 0%
[2]; [10]
  Activity against POLCO: 20%

## CSc1c(N(C)C)ccc(C(=O)Nc2nnnn2C)c1C
[1]; [10]
  Activity against CYPES: 30%
[2]; [10]
  Activity against POLCO: 0%

## COSc1c(C2CC2)ccc(C(=O)Nc2nnnn2C)c1C
[3]
  Activity against ALOMY: 90%
[4]; [11]
  pest or weed control at 320 g/ha: 100%

## CSc1c(C2CC2)ccc(C(=O)Nc2ncnn2C)c1C
[4]; [12]
  pest or weed control at 320 g/ha: 100%
VERPE (Veronica persica)
  Activity against VERPE: 90%

## CSc1c(C#N)ccc(C(=O)Nc2ncnn2C)c1C
[4]; [12]
  pest or weed control at 320 g/ha: 80%
VERPE (Veronica persica)
  Activity against VERPE: 70%

## CSc1c(I)ccc(C(=O)Nc2ncnn2C)c1C
[4]; [12]
  pest or weed control at 320 g/ha: 60%
VERPE (Veronica persica)
  Activity against VERPE: 0%

## CSc1c(C=O)ccc(C(=O)Nc2ncnn2C)c1C
[4]; [12]
  pest or weed control at 320 g/ha: 30%
VERPE (Veronica persica)
  Activity against VERPE: 0%

## CSc1c(C2OCCO2)ccc(C(=O)Nc2ncnn2C)c1C
[4]; [12]
  pest or weed control at 320 g/ha: 0%
VERPE (Veronica persica)
  Activity against VERPE: 0%

## COSc1c(C2CC2)ccc(C(=O)Nc2ncnn2C)c1C
[4]; [13]
  pest or weed control at 320 g/ha: 90%
[5]
  Activity against MATIN: 80%

## COSc1c(Cl)ccc(C(=O)Nc2ncnn2C)c1C
[4]; [13]
  pest or weed control at 320 g/ha: 70%
[5]
  Activity against MATIN: 30%

## COSc1c(C#N)ccc(C(=O)Nc2ncnn2C)c1C
[4]; [13]
  pest or weed control at 320 g/ha: 60%
[5]
  Activity against MATIN: 0%

## COSc1c(C=O)ccc(C(=O)Nc2ncnn2C)c1C
[4]; [13]
  pest or weed control at 320 g/ha: 40%
[5]
  Activity against MATIN: 0%

## COSc1c(C2OCCO2)ccc(C(=O)Nc2ncnn2C)c1C
[4]; [13]
  pest or weed control at 320 g/ha: 20%
[5]
  Activity against MATIN: 0%

## CCn1nnnc1NC(=O)c1ccc(C2CC2)c(SOC)c1C
[6]; [14]
  Activity against LOLMU: 100%
[7]
  Activity against PHBPU: 100%

## CCn1nnnc1NC(=O)c1ccc(C)c(SOC)c1C
[6]; [14]
  Activity against LOLMU: 30%
[7]
  Activity against PHBPU: 60%

## CSc1c(C2CC2)ccc(C(=O)Nc2ncc(C)o2)c1C
[8]; [15]
  Activity against MATIN: 80%
STEME (Stellaria media)
  Activity against STEME: 90%

## CSc1c(Cl)ccc(C(=O)Nc2nnc(C)o2)c1C
[8]; [15]
  Activity against MATIN: 60%
STEME (Stellaria media)
  Activity against STEME: 70%

## CSc1c(Br)ccc(C(=O)Nc2nnc(C)o2)c1C
[8]; [15]
  Activity against MATIN: 40%
STEME (Stellaria media)
  Activity against STEME: 60%

## CSc1c(C2CC2)ccc(C(=O)Nc2nnc(C)o2)c1C
[8]; [16]
  Activity against MATIN: 80%
[9]
  Activity against POLCO: 60%

## CSc1c(I)ccc(C(=O)Nc2nnc(C)o2)c1C
[8]; [16]
  Activity against MATIN: 60%
[9]
  Activity against POLCO: 20%

## CSc1c(C(F)(F)F)ccc(C(=O)Nc2nnc(C)o2)c1C
[8]; [16]
  Activity against MATIN: 60%
[9]
  Activity against POLCO: 0%

## CCn1nnnc1NC(=O)c1ccc(C2CC2)c(SC)c1C
AVEFA (Avena fatua)
  Activity against AVEFA: 100%
[6]; [17]
  Activity against LOLMU: 90%

## CSc1c(C2CC2)ccc(C(=O)Nc2nnnn2C)c1C [drawing 18]
[1]; [17]
  Activity against CYPES: 90%
[2]; [17]
  Activity against POLCO: 90%

## CSc1cccc(C(=O)Nc2nnnn2C)c1C [drawing 19, reference compound]
[1]; [17]
  Activity against CYPES: 30%
[2]; [17]
  Activity against POLCO: 0%

## CSc1c(C2CC2)ccc(C(=O)Nc2nnnn2C)c1C [drawing 21]
[1]; [10]
  Activity against CYPES: 90%
[2]; [10]
  Activity against POLCO: 90%

## CSc1c(C2OCCO2)ccc(C(=O)Nc2nnnn2C)c1C [drawing 24]
[1]; [10]
  Activity against CYPES: 0%
[2]; [10]
  Activity against POLCO: 30%

## CSc1c(C=O)ccc(C(=O)Nc2nnnn2C)c1C [drawing 25]
[1]; [10]
  Activity against CYPES: 0%
[2]; [10]
  Activity against POLCO: 0%

## CSc1cccc(C(=O)Nc2nnnn2C)c1C [drawing 27]
[3]
  Activity against ALOMY: 20%
[4]; [11]
  pest or weed control at 320 g/ha: 20%

## CSc1c(C2OCCO2)ccc(C(=O)Nc2nnnn2C)c1C [drawing 28]
[3]
  Activity against ALOMY: 0%
[4]; [11]
  pest or weed control at 320 g/ha: 0%

## CSc1c(C=O)ccc(C(=O)Nc2nnnn2C)c1C [drawing 29]
[3]
  Activity against ALOMY: 0%
[4]; [11]
  pest or weed control at 320 g/ha: 0%

## CSc1c(Br)ccc(C(=O)Nc2nnnn2C)c1C [reference compound]
[1]; [17]
  Activity against CYPES: 0%
[2]; [17]
  Activity against POLCO: 70%

## CCn1nnnc1NC(=O)c1ccc(C)c(SC)c1C [reference compound]
AVEFA (Avena fatua)
  Activity against AVEFA: 60%
[6]; [17]
  Activity against LOLMU: 30%

Reference: patent US9988347B2, “Herbicidally active arylcarboxylic acid amides” (BAYER CROPSCIENCE AKTIENGESELLSCHAFT, priority 2014, dated 2018)
